Legend:
[1] = system: A. castellanii trophozoites; assay: Drug wash-out / alamarBlue-reversion assay, trophozoites; type: cell-based, Acanthamoeba castellanii ATCC 50370
A. castellanii cysts = assay: Drug wash-out / alamarBlue-reversion assay, cysts; type: cell-based, Acanthamoeba castellanii ATCC 50370; details: for Back transformation to trophozoites after drug wash-out: Cysts; for Back transformation to trophozoites after drug wash-out: key: +: indicates cells reverting back to trophozoites after washout; and capable of oxidizing reduced alamarBlue from blue to pink after 8 days; −: indicates cell that did not revert to trophozoites after wash-out and unable to oxidise reduced alamarBlue solution
Procedure: For the drug kinetic assay, viability was assessed by the linked alamarBlue-reversion assay. Drug-treated cysts were washed with PBS and fresh PG medium was added to allow reversion to trophozoites for 5 days, after which, alamar blue was added and viability estimated as described above.
The cysticidal activity of QAC16 to QAC18 strongly correlated with (a) the alkyl-carbon chain lengths (Table 2) and the duration of drug contact (FIG. 8H). Like trophozoites, death was via leakage judged by 40% and 50% increase in DNA and proteins in the external milieu after 1 h (FIGS. 9A and 9B). To investigate if the cyst were viable, a complementary viability assay that involved, drug washout, incubation in PG medium to allow reversion of viable cyst to trophozoite for 7 days, and estimation of viability using the oxidation of resazurin after 6 h.

[2] = system: A. castellanii trophozoites; assay: Morphometric analysis of trophozoites; type: cell-based, Acanthamoeba castellanii ATCC 50370
Procedure: (§1) Acanthamoeba trophozoites ([…]) incubated without (FIG. 2A), with QAC18 at 37.5 μg/ml for 1 h at 25° C. (FIG. 2B), and 0.5% SDS for 30 min (FIG. 2C). QAC18 reduced trophozoites sizes from 29.02±0.23 (FIG. 2A) to 7.87 f 0.93 (FIG. 2B) which disintegrated after 30 min treatment with SDS (FIG. 2C).
A. castellanii trophozoites incubated with and without QAC for a duration determined by experimental protocol were examined microscopically and their sizes measured using the Open Laboratory (Improvision) calibration graticule. The mean body sizes were determined.

gDNA from A. castellanii = assay: QAC-DNA interaction assay; type: binding, Acanthamoeba castellanii; details: DNA:QAC ratios 1:0, 1:1, 1:10, 1:20; 15 min
Procedure: FIGS. 3A and 3B show the QAC-DNA interaction. The absorbance of genomic DNA (0.6 ng/ml) extracted from A. castellani trophozoites measured at 260 nm with the Nanodrop after incubating for 15 minutes with 0 ng/ml, 0.6 ng/ml, 6 ng/ml or 12 ng/ml of QAC12 (FIG. 3A) or QAC16 (FIG. 3B) to give ratios of 1:0, 1:1, 1:10 and 1:20. DNA absorbance increased and decreased with increased […] and [QAC12] respectively. Data is mean absorbance at 260 nm±SD; n=4 independent experiments performed in triplicates.
Genomic deoxynucleic acids (gDNA) from 10^8 A. castellanii trophozoites (treated with and without QAC) were extracted from cells harvested by centrifugation (850×g, 10 min), lysed with UNSET buffer (8M urea, […] NaCl, 2% SDS, […] ethylenediaminetetraacetic acid (EDTA), […] Tris-HCl, pH 7.5) and the DNA extracted with phenol-chloroform (1:1 v/v). The biphasic suspension with DNA enriched on the […] was centrifuged (12,000×g for 15 min, 4° C.) for clear separation and transferred to a new microcentrifuge tube. The DNA was precipitated with cold ethanol (100%, v/v) and 0.3M sodium acetate, washed twice with 70% (v/v) ethanol (12,000×g for 10 min, 4° C.), air dried and resuspended in distilled water. […]

[3] = system: A. castellanii trophozoites; assay: SDS disintegration of QAC-treated trophozoites; type: cell-based, Acanthamoeba castellanii ATCC 50370; details: QAC18-treated, 0.5% SDS for 30 min
Procedure: as §1
Acanthamoeba castellanii ATCC 50370 trophozoites and cysts were cultured in Peptone Glucose (PG) medium and encystment medium (Chagla A H, Griffiths A J (1974) Microbiology: 85(1): 139-145) respectively at 25° C. Cysts were prepared by incubating trophozoites for 8 days in encystment medium and integrity validated with calcofluor (0.25 μg/ml) assay (Gatti S et al (2010) J. Med. Microbiol.; 59: 1324-1330) or sodium dodecyl sulfate (SDS, 0.5% w/v) disintegration assay (Dudley R et al (2005) Acta Trop.; 9: 100-8) and microscopic observation.

Compound: CCCCCCCCCCCCCCCCCC[N+](C)(C)C.[Br-] [QAC18, octadecyltrimethyl ammonium bromide]
- Back transformation to trophozoites after drug wash-out ([1]; 9.375 μg/ml, 1 h): +
- Back transformation to trophozoites after drug wash-out ([1]; 9.375 μg/ml, 24 h): −
- Back transformation to trophozoites after drug wash-out ([1]; 9.375 μg/ml, 48 h): −
- Back transformation to trophozoites after drug wash-out ([1]; 9.375 μg/ml, 72 h): −
- Back transformation to trophozoites after drug wash-out ([1]; 9.375 μg/ml, 96 h): −
- Back transformation to trophozoites after drug wash-out ([1]; 18.75 μg/ml, 1 h): +
- Back transformation to trophozoites after drug wash-out ([1]; 18.75 μg/ml, 24 h): −
- Back transformation to trophozoites after drug wash-out ([1]; 18.75 μg/ml, 48 h): −
- Back transformation to trophozoites after drug wash-out ([1]; 18.75 μg/ml, 72 h): −
- Back transformation to trophozoites after drug wash-out ([1]; 18.75 μg/ml, 96 h): −
- Back transformation to trophozoites after drug wash-out ([1]; 37.50 μg/ml, 1 h): −
- Back transformation to trophozoites after drug wash-out ([1]; 37.50 μg/ml, 24 h): −
- Back transformation to trophozoites after drug wash-out ([1]; 37.50 μg/ml, 48 h): −
- Back transformation to trophozoites after drug wash-out ([1]; 37.50 μg/ml, 72 h): −
- Back transformation to trophozoites after drug wash-out ([1]; 37.50 μg/ml, 96 h): −
- Amoebotoxicity after wash-out and replacement with PG medium ([1]; after 24 h at 9.375 μg/ml): amoebotoxic
- Amoebotoxicity after wash-out and replacement with PG medium ([1]; from 1 h onwards at 37.5 μg/ml): amoebotoxic
- Resurgence of cysts after drug washout (A. castellanii cysts; 18.75 μg/ml after 48 h): No resurgence
- Resurgence of cysts after drug washout (A. castellanii cysts; 37.5 μg/ml after 24 h): No resurgence
- Back transformation to trophozoites after drug wash-out (A. castellanii cysts; 9.375 μg/ml, 24 h): +
- Back transformation to trophozoites after drug wash-out (A. castellanii cysts; 9.375 μg/ml, 48 h): +
- Back transformation to trophozoites after drug wash-out (A. castellanii cysts; 9.375 μg/ml, 72 h): +
- Back transformation to trophozoites after drug wash-out (A. castellanii cysts; 18.75 μg/ml, 24 h): +
- Back transformation to trophozoites after drug wash-out (A. castellanii cysts; 18.75 μg/ml, 48 h): +
- Back transformation to trophozoites after drug wash-out (A. castellanii cysts; 18.75 μg/ml, 72 h): +
- Back transformation to trophozoites after drug wash-out (A. castellanii cysts; 37.50 μg/ml, 24 h): −
- Back transformation to trophozoites after drug wash-out (A. castellanii cysts; 37.50 μg/ml, 48 h): −
- Back transformation to trophozoites after drug wash-out (A. castellanii cysts; 37.50 μg/ml, 72 h): −
- Reduction in trophozoite size relative to untreated [2]: 4 fold
- Trophozoite size after treatment ([2]; 37.5 μg/ml for 1 h at 25° C. (FIG. 2B)): 7.87
- Trophozoite size after treatment ([2]; QAC18-treated trophozoites (FIG. 2B)): 7.87±0.93 μm
- Change of gDNA absorbance at 260 nm with increasing QAC (gDNA from A. castellanii): progressively increased absorbance
- Disintegration of shrunk treated trophozoites by 0.5% SDS [3]: 92%

— patent US20230102836A1, “Amoebicidal Compositions for Contact Lens Solutions” (University of the West of Scotland, priority 2019, published 2023)
